Test results published in patent publication US9790207B2, “Pan-genomic inhibitors of NS5A protein encoded by HCV, pharmaceutical compositions, intermediates for inhibitor synthesis, and their synthesis and application methods” (priority 2015, dated 2017).
Where a name gives a salt, the structure may show the parent alone. Read-outs that look alike come from different tables or passages of the source.

Experiments:
[1] = Cytotoxicity, cell viability by ATPLite Kit; format: cell-based, human; conditions: human, 10% FBS; for inhibition at 96 h: Huh7 cells (human hepatoma cell line), maximal inhibition, read-out: Cytotox gT1b 10% FBS max. inh.
Procedure: The cytotoxicity of the test compounds was studied in parallel using the same cell line, Huh7. Cell viability was determined using the ATPLite Kit (Perkin-Elmer, Boston, USA), according to manufacturer's instructions. 96-well black/transparent bottom plates were seeded with cells at a density of 7.5×10^3 cells per well in 50 μl medium. After 18 hours, compound treatment was initiated by adding 50 μl of compound dilution into the plates. Each compound dilution was tested in triplicates. The cells and inhibitors were then incubated for 96 hours at 37° C./5% CO2. The plates were washed twice with PBS (0.2 ml/well), and then lysed by adding lysis buffer, 0.05 ml/well (all reagents were included with the ATPLite Kit). After rocking for 5 min on a rocking platform, substrate buffer was added (0.05 ml/well). After additional 5-min incubation, the plates were kept in dark for 10 min, and the luminescence was read using TopCount NXT (Packard, Perkin Elmer). CC50 values for all test compounds were determined using XLfit 4.1 software (Table 2).

HCV gT1b replicon = assay: HCV replicon assay, gT1b; format: cell-based, Hepatitis C virus (HCV); conditions: Hepatitis C virus, GT1B, Huh-7, Huh7 replicon cells, mean value
Procedure: The HCV replicon assay was used to determine the antiviral activity of compounds of general formula 2 (test compounds). The test cell line used in the HCV Replicon Assay was the human hepatoma cell line Huh7 incorporating the HCV replicons synthesized by an outside vendor.
96-well plates were seeded with cells at a density of 7.5×10^3 cells per well in 50 μl of assay media. The compound stock solution was made up freshly in an assay medium (DMEM 1×, Cellgro; cat. #10-013-CV) as a 2× stock. A total of 11 serial 3-fold dilutions of test compounds were prepared from the 2× stock in the assay media ranging from 20 nM-0.2 pM final concentrations. At least 4 hours after seeding the cells, compound treatment was initiated by adding 50 μl of compound dilution to the plates. The final concentrations of compound therefore ranged from 10 nM to 0.1 pM when diluted 1:1 in culture media. The final DMSO concentration was 0.5%. Cells and inhibitors were incubated for 3 days at 37° C./5% CO2. The media was removed from the plates by gentle tapping. The cells were fixed with 100 μl 1:1 acetone:methanol for 1 minute, washed three times with PBS buffer, and then blocked with 150 μl/well 10% Fetal Bovine Serum (FBS) in PBS for 1 hour at room temperature. The cells were then washed three times with PBS buffer and incubated with 100 μl/well anti-hepatitis C core mAb (Affinity BioReagents; cat. # MA1-080, 1 mg/ml stock diluted 1:4,000 in 10% FBS-PBS) for 2 hours at 37° C. Then, the cells were washed three times with PBS and incubated with 100 μl/well HRP-Goat Anti-Mouse antibody (diluted 1:3.500 in 10% FBS-PBS) for 1 hour at 37° C. The cells were then washed three times with PBS and developed with an OPD solution, 100 μl/well (1 OPD tablet+12 ml citrate/phosphate buffer+5 μl 30% H2O2 per plate), for 30 minutes in the dark at room temperature. The reaction was stopped with 2N H2SO4 (100 μl/well), and the absorbance was measured at A490 X on a Victor^3 V 1420 multilabel counter (Perkin Elmer).

[2] = 10% FBS, read-out: gT1b 10% FBS, EC50 (pM) mean
[3] = 40% NHS, read-out: gT1b 40% NHS, EC50 (pM) mean

SMILES	inhibition at 96 h [1] [%]	EC50 (HCV gT1b replicon; [2]) [pM]	EC50 (HCV gT1b replicon; [3]) [pM]	CC50 at 96 h ([1]; Huh7 human hepatoma cells, read-out: Cytotox gT1b 10% FBS CC50) [nM]
COC(=O)N[C@H](C(=O)N1CCC[C@H]1c1ncc(C#CC#Cc2ccc(-c3cnc([C@@H]4CCCN4C(=O)[C@@H](NC(=O)OC)C(C)C)[nH]3)cc2-c2ccccc2)[nH]1)C(C)C [2(1)•2HCl, [(S)-1-((S)-2-{5-[4-(5-{2-[(S)-1-((S)-2-Methoxycarbonylamino-3-methyl-butyryl)-pyrrolidin-2-yl]-3H-imidazol-4-yl}-biphenyl-2-yl)-buta-1,3-diynyl]-1H-imidazol-2-yl}-pyrrolidine-1-carbonyl)-2-methyl-propyl]-carbamic acid methyl ester dihydrochloride]	42	1.79	12.4	
COC(=O)N[C@H](C(=O)N1CCC[C@H]1c1ncc(C#CC#Cc2ccc(-c3cnc([C@@H]4CCCN4C(=O)[C@@H](NC(=O)OC)C(C)C)[nH]3)cc2-c2cccc(C(C)(C)C)c2)[nH]1)C(C)C [2(2)•2HCl, [(S)-1-((S)-2-{5-[4-(3′-tert-Butyl-5-{2-[(S)-1-((S)-2-methoxycarbonylamino-3-methyl-butyryl)-pyrrolidin-2-yl]-3H-imidazol-4-yl}-biphenyl-2-yl)-buta-1,3-diynyl]-1H-imidazol-2-yl}-pyrrolidine-1-carbonyl)-2-methyl-propyl]-carbamic acid methyl ester dihydrochloride]	38	1.67	6.6	
COC(=O)N[C@H](C(=O)N1CCC[C@H]1c1ncc(C#CC#Cc2ccc(-c3cnc([C@@H]4CCCN4C(=O)[C@@H](NC(=O)OC)C(C)C)[nH]3)cc2-c2cccc(-c3ccccc3)c2)[nH]1)C(C)C [2(3)•2HCl, [(S)-1-((S)-2-{5-[4-(5-{2-[(S)-1-((S)-2-Methoxycarbonylamino-3-methyl-butyryl)-pyrrolidin-2-yl]-3H-imidazol-4-yl}-[1,1′; 3′,1″]terphenyl-2-yl)-buta-1,3-diynyl]-1H-imidazol-2-yl}-pyrrolidine-1-carbonyl)-2-methyl-propyl]-carbamic acid methyl ester dihydrochloride]	29	1.24	17.1	
COC(=O)N[C@H](C(=O)N1CCC[C@H]1c1ncc(C#CC#Cc2ccc(-c3cnc([C@@H]4CCCN4C(=O)[C@@H](NC(=O)OC)C(C)C)[nH]3)cc2-c2ccc3ccccc3c2)[nH]1)C(C)C [2(4)•2HCl, [(S)-1-((S)-2-{5-[4-(4-{2-[(S)-1-((S)-2-Methoxycarbonylamino-3-methyl-butyryl)-pyrrolidin-2-yl]-3H-imidazol-4-yl}-2-naphthalen-2-yl-phenyl)-buta-1,3-diynyl]-1H-imidazol-2-yl}-pyrrolidine-1-carbonyl)-2-methyl-propyl]-carbamic acid methyl ester dihydrochloride]	31	1.56	16.3	
COC(=O)N[C@H](C(=O)N1CCC[C@H]1c1ncc(-c2ccc(C#CC#Cc3cnc([C@@H]4CCCN4C(=O)[C@H](NC(=O)OC)c4ccccc4)[nH]3)c(-c3cccc(C(C)(C)C)c3)c2)[nH]1)C(C)C [2(10)•2HCl, [(S)-1-((S)-2-{5-[3′-tert-Butyl-6-(4-{2-[(S)-1-((R)-2-methoxycarbonylamino-2-phenyl-acetyl)-pyrrolidin-2-yl]-3H-imidazol-4-yl}-buta-1,3-diynyl)-biphenyl-3-yl]-1H-imidazol-2-yl}-pyrrolidine-1-carbonyl)-2-methyl-propyl]-carbamic acid methyl ester dihydrochloride]	37	1.22	8.13	
COC(=O)N[C@H](C(=O)N1CCC[C@H]1c1ncc(-c2ccc(C#CC#Cc3cnc([C@@H]4CCCN4C(=O)[C@H](NC(=O)OC)c4ccccc4)[nH]3)c(-c3ccc(C(C)(C)C)cc3)c2)[nH]1)C(C)C [2(11)•2HCl, [(S)-1-((S)-2-{5-[4′-tert-Butyl-6-(4-{2-[(S)-1-((R)-2-methoxycarbonylamino-2-phenyl-acetyl)-pyrrolidin-2-yl]-3H-imidazol-4-yl}-buta-1,3-diynyl)-biphenyl-3-yl]-1H-imidazol-2-yl}-pyrrolidine-1-carbonyl)-2-methyl-propyl]-carbamic acid methyl ester dihydrochloride]	29	1.24	10.7	
COC(=O)N[C@H](C(=O)N1CCC[C@H]1c1ncc(-c2ccc(C#CC#Cc3cnc([C@@H]4CCCN4C(=O)[C@H](NC(=O)OC)c4ccccc4)[nH]3)c(-c3cccc(-c4ccccc4)c3)c2)[nH]1)C(C)C [2(12)•2HCl, [(S)-1-((S)-2-{5-[6-(4-{2-[(S)-1-((R)-2-Methoxycarbonylamino-2-phenyl-acetyl)-pyrrolidin-2-yl]-3H-imidazol-4-yl}-buta-1,3-diynyl)-[1,1′;3′,1″]terphenyl-3-yl]-1H-imidazol-2-yl}-pyrrolidine-1-carbonyl)-2-methyl-propyl]-carbamic acid methyl ester dihydrochloride]	29	1.79	13.4	
COC(=O)N[C@H](C(=O)N1CCC[C@H]1c1ncc(-c2ccc(C#CC#Cc3cnc([C@@H]4CCCN4C(=O)[C@H](NC(=O)OC)c4ccccc4)[nH]3)c(-c3ccc(-c4ccccc4)cc3)c2)[nH]1)C(C)C [2(13)•2HCl, [(S)-1-((S)-2-{5-[6-(4-{2-[(S)-1-((R)-2-Methoxycarbonylamino-2-phenyl-acetyl)-pyrrolidin-2-yl]-3H-imidazol-4-yl}-buta-1,3-diynyl)-[1,1′;4′,1″]terphenyl-3-yl]-1H-imidazol-2-yl}-pyrrolidine-1-carbonyl)-2-methyl-propyl]-carbamic acid methyl ester dihydrochloride]	24	1.61	14.4	
COC(=O)N[C@H](C(=O)N1CCC[C@H]1c1ncc(-c2ccc(C#CC#Cc3cnc([C@@H]4CCCN4C(=O)[C@H](NC(=O)OC)c4ccccc4)[nH]3)c(-c3ccc(N4CCN(C)CC4)cc3)c2)[nH]1)C(C)C [2(15)•2HCl, [(S)-1-((S)-2-{5-[4′-(4-Methyl-piperazin-1-yl)-6-(4-{2-[(S)-1-((R)-2-methoxycarbonylamino-2-phenyl-acetyl)-pyrrolidin-2-yl]-3H-imidazol-4-yl}-buta-1,3-diynyl)-biphenyl-3-yl]-1H-imidazol-2-yl}-pyrrolidine-1-carbonyl)-2-methyl-propyl]-carbamic acid methyl ester tetrahydrochloride]	82	3.65	23.9	16200
COC(=O)N[C@H](C(=O)N1CCC[C@H]1c1ncc(-c2ccc(C#CC#Cc3cnc([C@@H]4CCCN4C(=O)[C@H](NC(=O)OC)c4ccccc4)[nH]3)c(-c3cccnc3)c2)[nH]1)C(C)C [2(16)•2HCl, [(S)-1-((S)-2-{5-[4-(4-{2-[(S)-1-((R)-2-Methoxycarbonylamino-2-phenyl-acetyl)-pyrrolidin-2-yl]-3H-imidazol-4-yl}-buta-1,3-diynyl)-3-pyridin-3-yl-phenyl]-1H-imidazol-2-yl}-pyrrolidine-1-carbonyl)-2-methyl-propyl]-carbamic acid methyl ester trihydrochloride]	32	4.7	36.2	
COC(=O)N[C@H](C(=O)N1CCC[C@H]1c1ncc(-c2ccc(C#CC#Cc3cnc([C@@H]4CCCN4C(=O)[C@H](NC(=O)OC)c4ccccc4)[nH]3)c(Sc3ccccc3)c2)[nH]1)C(C)C [2(20)•2HCl, [(S)-1-((S)-2-{5-[4-(4-{2-[(S)-1-((R)-2-Methoxycarbonylamino-2-phenyl-acetyl)-pyrrolidin-2-yl]-3H-imidazol-4-yl}-buta-1,3-diynyl)-3-phenylsulfanyl-phenyl]-1H-imidazol-2-yl}-pyrrolidine-1-carbonyl)-2-methyl-propyl]-carbamic acid methyl ester dihydrochloride]	43	1.7	9.02	
